Results on nine molecules are retold here after paper PMC4083421 (Nature Communications, 2014).

Holding throughout (type): binding
Assay [1] addresses T1, 1LysM module of AtlA (Enterococcus faecalis, UniProt P37710). The assay is described as follows: biochemical.
A further assay concerns the target T2, L1–L6 (Enterococcus faecalis, UniProt P37710).
T2 sequence (P37710 338-737): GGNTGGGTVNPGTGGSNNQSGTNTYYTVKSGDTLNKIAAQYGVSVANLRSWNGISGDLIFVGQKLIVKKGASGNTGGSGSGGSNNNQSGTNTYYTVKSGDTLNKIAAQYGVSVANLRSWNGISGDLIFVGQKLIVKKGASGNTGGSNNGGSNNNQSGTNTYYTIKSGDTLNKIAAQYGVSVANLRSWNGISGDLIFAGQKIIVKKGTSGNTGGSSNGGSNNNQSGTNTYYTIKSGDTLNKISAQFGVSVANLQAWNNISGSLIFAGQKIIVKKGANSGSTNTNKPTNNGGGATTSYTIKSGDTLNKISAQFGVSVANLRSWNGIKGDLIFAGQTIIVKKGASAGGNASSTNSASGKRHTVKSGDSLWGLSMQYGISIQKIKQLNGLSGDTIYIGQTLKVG
The assay is described as follows: Steady-state SPR. The settings on record: SD.

The target in another assay is T3, L1L2L3 (Enterococcus faecalis, UniProt P37710).
T3 sequence (P37710 338-542 A476S/S477A): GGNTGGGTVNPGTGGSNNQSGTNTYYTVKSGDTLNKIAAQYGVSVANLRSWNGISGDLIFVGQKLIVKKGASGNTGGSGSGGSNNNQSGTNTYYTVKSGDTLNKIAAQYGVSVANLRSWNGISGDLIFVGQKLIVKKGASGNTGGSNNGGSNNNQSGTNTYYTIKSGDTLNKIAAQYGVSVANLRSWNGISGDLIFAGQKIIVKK
The assay is described as follows: Steady-state SPR. The settings on record: SD.

The next assay deals with L1L2 (Enterococcus faecalis, UniProt P37710). Description: Steady-state SPR.
The target in a further assay is L1 (Enterococcus faecalis, UniProt P37710). The assay is described as follows: Steady-state SPR.
The target of assay [2] is T4, 1 (1LysM, WT) (Enterococcus faecalis, UniProt P37710). The assay is described as follows: Steady-state SPR.
Assay [3] has as its target T1, 1LysM module of AtlA. The assay is described as follows: biochemical. The settings on record: Apparent KD to 1LysM (SPR), single LysM module; ± standard deviation.
The target of assay [4] is T4, 1 (1LysM, WT). Description: SPR. (In SPR one partner is held on a chip, and binding of the other changes the refractive index at the surface.)

Read-outs that look alike come from different tables or passages of the source.

Consider `CC(=O)N[C@H]1[C@H](O[C@H]2[C@H](O[C@H](C)C(=O)O)[C@@H](NC(C)=O)C(O)O[C@@H]2CO)O[C@H](CO)[C@@H](O[C@@H]2O[C@H](CO)[C@@H](O[C@@H]3O[C@H](CO)[C@@H](O)[C@H](O)[C@H]3NC(C)=O)[C@H](O[C@H](C)C(=O)O)[C@H]2NC(C)=O)[C@@H]1O` (stereo partly drawn) [(GlcNAc-MurNAc)2, (GlcNAc-β−1,4-MurNAc)2], for which the Kd on 1LysM module of AtlA [1] came to 650 µM.
In the case of `CC(=O)N[C@H]1[C@H](O[C@H]2[C@H](O)[C@@H](NC(C)=O)C(O)O[C@@H]2CO)O[C@H](CO)[C@@H](O)[C@@H]1O` (stereo partly drawn) [GlcNAc2, chitobiose (di-N-acetylchitobiose, beta-1,4-linked GlcNAc dimer)], the Kd at L1–L6 was 4420 µM; on L1L2L3 it was 7100 µM; at L1L2, more than 5000 µM; at L1, more than 5000 µM; at 1 (1LysM, WT) [2], more than 5000 µM.
As for `CC(=O)N[C@H]1[C@H](O[C@H]2[C@H](O)[C@@H](NC(C)=O)C(O)O[C@@H]2CO)O[C@H](CO)[C@@H](O[C@@H]2O[C@H](CO)[C@@H](O)[C@H](O)[C@H]2NC(C)=O)[C@@H]1O` (stereo partly drawn) [GlcNAc3, chitotriose (tri-N-acetylchitotriose, beta-1,4-linked GlcNAc trimer)], the Kd was determined as 702 ± 87.7 µM on L1–L6, 628 ± 32.8 µM at L1L2L3, 678 ± 57.3 µM on L1L2 (SD) and 453 ± 58.6 µM at L1 (SD).
In the case of `CC(=O)N[C@H]1[C@H](O[C@H]2[C@H](O)[C@@H](NC(C)=O)C(O)O[C@@H]2CO)O[C@H](CO)[C@@H](O[C@@H]2O[C@H](CO)[C@@H](O)[C@H](O)[C@H]2NC(C)=O)[C@@H]1O` (stereo partly drawn) [GlcNAc3], at 1LysM module of AtlA [3], the Kd is 408 ± 80.8 µM.
Regarding `CC(=O)N[C@H]1[C@H](O[C@H]2[C@H](O)[C@@H](NC(C)=O)C(O)O[C@@H]2CO)O[C@H](CO)[C@@H](O[C@@H]2O[C@H](CO)[C@@H](O[C@@H]3O[C@H](CO)[C@@H](O)[C@H](O)[C@H]3NC(C)=O)[C@H](O)[C@H]2NC(C)=O)[C@@H]1O` (stereo partly drawn) [GlcNAc4, chitotetraose (tetra-N-acetylchitotetraose, beta-1,4-linked GlcNAc tetramer)], the Kd at L1–L6 worked out at 18.6 ± 4.5 µM; on L1L2L3 it was 22.3 ± 1.8 µM; at L1L2 (SD), 38.1 ± 2.8 µM; at L1 (SD), 50.4 ± 4.1 µM.
Regarding `CC(=O)N[C@H]1[C@H](O[C@H]2[C@H](O)[C@@H](NC(C)=O)C(O)O[C@@H]2CO)O[C@H](CO)[C@@H](O[C@@H]2O[C@H](CO)[C@@H](O[C@@H]3O[C@H](CO)[C@@H](O)[C@H](O)[C@H]3NC(C)=O)[C@H](O)[C@H]2NC(C)=O)[C@@H]1O` (stereo partly drawn) [GlcNAc4, reference compound], the Kd is 43.4 ± 3 µM at 1LysM module of AtlA [3] and 90 µM at 1LysM module of AtlA [1].
As for `CC(=O)N[C@H]1[C@H](O[C@H]2[C@H](O)[C@@H](NC(C)=O)[C@H](O[C@H]3[C@H](O)[C@@H](NC(C)=O)C(O)O[C@@H]3CO)O[C@@H]2CO)O[C@H](CO)[C@@H](O[C@@H]2O[C@H](CO)[C@@H](O[C@@H]3O[C@H](CO)[C@@H](O)[C@H](O)[C@H]3NC(C)=O)[C@H](O)[C@H]2NC(C)=O)[C@@H]1O` (stereo partly drawn) [GlcNAc5, chitopentaose (penta-N-acetylchitopentaose, beta-1,4-linked GlcNAc pentamer)], the Kd on L1–L6 was 2.2 ± 0.3 µM; at L1L2L3 it was 4.6 ± 0.4 µM; at L1L2 (SD), 9.6 ± 0.8 µM; on L1 (SD) it was 12.1 ± 1.4 µM; on 1 (1LysM, WT) [4], 11.7 ± 1.7 µM.
Take `CC(=O)N[C@H]1[C@H](O[C@H]2[C@H](O)[C@@H](NC(C)=O)[C@H](O[C@H]3[C@H](O)[C@@H](NC(C)=O)C(O)O[C@@H]3CO)O[C@@H]2CO)O[C@H](CO)[C@@H](O[C@@H]2O[C@H](CO)[C@@H](O[C@@H]3O[C@H](CO)[C@@H](O[C@@H]4O[C@H](CO)[C@@H](O)[C@H](O)[C@H]4NC(C)=O)[C@H](O)[C@H]3NC(C)=O)[C@H](O)[C@H]2NC(C)=O)[C@@H]1O` (stereo partly drawn) [GlcNAc6, chitohexaose (hexa-N-acetylchitohexaose, beta-1,4-linked GlcNAc hexamer)]: the Kd on L1–L6 turned out to be 1.5 ± 0.1 µM; at L1L2L3 it was 3 ± 0.1 µM; at L1L2 (SD) it was 5 ± 0.3 µM; at L1 (SD), 5.6 ± 0.5 µM.
For the molecule `CC(=O)N[C@H]1[C@H](O[C@H]2[C@H](O)[C@@H](NC(C)=O)[C@H](O[C@H]3[C@H](O)[C@@H](NC(C)=O)C(O)O[C@@H]3CO)O[C@@H]2CO)O[C@H](CO)[C@@H](O[C@@H]2O[C@H](CO)[C@@H](O[C@@H]3O[C@H](CO)[C@@H](O[C@@H]4O[C@H](CO)[C@@H](O)[C@H](O)[C@H]4NC(C)=O)[C@H](O)[C@H]3NC(C)=O)[C@H](O)[C@H]2NC(C)=O)[C@@H]1O` (stereo partly drawn) [GlcNAc6], the Kd at 1LysM module of AtlA [3] turned out to be 6 ± 0.8 µM.
